From US11564947B2, “Methods and compositions for cellular immunotherapy” (eFFECTOR Therapeutics, Inc., priority 2017, dated 2023)

Key:
CD8+ T cells [1] = assay: T cell memory formation, mixed lymphocyte reaction (MLR) assay, CD8+ cells; format: cell-based, mouse
Experimental: (§1) Spleens were isolated from OT-I and processed into a single cell suspension. Red blood cells (RBCs) were lysed using RBC lysis solution. Splenocytes (2×10^6 cells/ml) were cultured in complete media (10% FBS in DMEM) and stimulated with 5 μg/ml OVA MHC class I epitope peptide (SIINFEKL, SEQ ID NO:1) in the absence or presence of 0.01 μM, 0.1 μM, 1.0 μM, 3.0 μM, or 10 μM of MNK-specific inhibitor, Compound 107, for 48 hrs. For the mixed lymphocyte reaction (MLR) assay, peritoneal macrophages were first isolated from BALB/c mice by peritoneal wash with chilled DMEM media. This lavage was plated in a 24 well plate for 2 h at 37° C. After 2 h, non-adherent cells were washed to remove non-macrophage populations. The adherent cells (primarily peritoneal macrophages) were cultured in complete media in the absence or presence of the indicated Compound 107 concentrations for 24 h. After 24 h, panned splenocytes (enriched in T cells) from C57BL/6 mice were added to the macrophage culture in the absence or presence of Compound 107 for an additional 4 days.
(§2) The cells were harvested from the MLR, washed and stained with Horizon™ FVS, anti-CD4, anti-CD8, anti-CD44 and anti-CD62L antibodies. The cells were analyzed by flow cytometry (Attune NXT, ThermoFisher) and FlowJo analysis software (FlowJo LLC, Ashland Oreg.). CD8+ and CD4+ cells populations were analyzed for expression of CD44 and CD62L. […]

[2] = test system: OT-I memory T cells (CD45.2+CD8+CD44+) in spleen; assay: Long-term memory/recall response after adoptive transfer of OT-I T cells; format: in vivo, B6.SJL mice
Experimental: Spleens were isolated from OT-I mice and CD3^+ T cells were isolated using the MojoSort Mouse CD3 T Cell Isolation Kit (Biolegend, San Diego Calif.). OT-I T cells (2×10^6 cells) were adoptively transferred into B6.SJL mice through intravenous tail vein injection. Mice were dosed orally with vehicle or 1 mg/kg Compound 107 24 hrs later and vaccinated subcutaneously with SIINFEKL peptide (SEQ ID NO:1) (50 μg/mouse). Mice were dosed with vehicle or 1 mg/kg Compound 107 for an additional six days. On day 21 post-immunization, selected groups were boosted with an additional injection of SIINFEKL peptide (SEQ ID NO:1) (50 μg/mouse). On day 24, spleens were harvested from animals and processed into a single cell suspension for flow cytometry analysis. Cells were stained with BD Horizon Fixable Viability Stain and antibodies against CD45.2, CD8, and CD44. Cells were analyzed using an Attune NXT flow cytometer and data was processed using FlowJo 10.1 software.

CD4+ T cells = assay: T cell memory formation, mixed lymphocyte reaction (MLR) assay, CD4+ cells; format: cell-based, mouse; settings: MLR in presence of Compound 107
Experimental: as §1, §2

E.G7-OVA tumors = assay: In vivo tumor growth inhibition; set-up: species or system athymic nude mice
Experimental: E.G7-OVA tumor cells (2×10^6) were implanted subcutaneously into athymic nude mice. On day 7 post-implant, tumors were measured (˜192 mm^3) and tumor-bearing animals were randomized into 6 groups. T cells purified from OT-I mouse spleens were cultured for 48 h in vitro with DMSO/PBS control alone, 50 μg/ml SIINFEKL peptide (SEQ ID NO:1) alone, 1 μM Compound 107, or the combination of 50 μg/ml SIINFEKL (SEQ ID NO:1) and 1 μM Compound 107. The in vitro treated OT-I T cells were adoptively transferred into animals from the appropriate groups (2×10^6 cells/mouse) by tail vein injection. Animals were dosed in vivo with vehicle or 1 mg/kg Compound 107 and tumor size and body weight was monitored during the course of the study.

CD8+ T cells [3] = assay: T cell memory formation, OVA MHC class I epitope peptide (SIINFEKL) stimulation of OT-I splenocytes; format: cell-based, mouse; settings: 5 μg/ml SIINFEKL peptide plus Compound 107 0.01-10 μM, 48 hrs, peptide alone 32%
Experimental: as §1, §2

Cc1cc(Nc2cc(N)ncn2)c(=O)n2c1C(=O)NC21CCCCC1.Cl [Compound 107]
pool of TCM CD8+ T cells (CD8+ T cells [1]; MLR in presence of Compound 107, MLR alone 15%): 20-29% | TEM pool of CD8+ T cells (CD8+ T cells [1]; MLR, 0.01-3 μM of Compound 107, MLR alone 16%): 8-11% | percentage of OT-I memory T cells in spleen (% of total lymphocytes) ([2]; immunized and boosted with SIINFEKL, 1 mg/kg oral during immunization, day 24, vs vehicle-treated immunized/boosted group): significantly increased | population of OT-I memory T cells in spleen (% of total lymphocytes) ([2]; un-immunized animals, 1 mg/kg oral, day 24): unaffected | pool of TCM CD4+ T cells (CD4+ T cells; MLR alone 21%): 28-39% | TEM CD4+ T cell pool (CD4+ T cells; MLR alone 25%): 16-23% | tumor growth inhibition (TGI) (E.G7-OVA tumors; OT-I cells pre-treated in vitro with SIINFEKL and Compound 107, animals also dosed in vivo with 1 mg/kg Compound 107, compared with the vehicle-dosed group (55%)): did not show any further increase in TGI | tumor growth inhibition (TGI) (E.G7-OVA tumors; adoptive transfer of SIINFEKL-pre-treated OT-I cells, animals dosed 1 mg/kg Compound 107 daily, 8 days post-transfer): 45% | tumor growth inhibition (TGI) (E.G7-OVA tumors; no adoptive transfer of OT-I T cells, 1 mg/kg Compound 107 daily vs vehicle, 8 days post-transfer): 16% | tumor growth inhibition (TGI) (E.G7-OVA tumors; vehicle-dosed animals, OT-I cells pre-treated in vitro with SIINFEKL and 1 μM Compound 107, 8 days post-transfer): 55% | distribution of CD8+ T cells in the TCM pool (CD44high CD62Lhigh) (CD8+ T cells [3]): 36-41%
